| Compound | melting point |
| --- | --- |
| CCCc1c(OCc2ccc(C=CC(=O)O)cc2OC)ccc(C(C)=O)c1O | 144 to 146 °C |
| O=Cc1ccccc1Oc1ccc(F)cc1[N+](=O)[O-] | 94 to 95 °C |
| N#Cc1cc(N)ccc1N1CCN(C2CCOCC2)CC1 | 162 °C |
| COc1ccc2[nH]cc(/C(C#N)=C/c3cccc(C#N)c3)c2c1 | 149 °C |
| C=CC(=O)Nc1c(C)cccc1C | 144 to 145 °C |
| FCc1cccc(C#CCCc2ccc3ccccc3n2)n1 | 70.2 to 74.3 °C |
| CN(C)S(=O)(=O)c1cc2c(c(C(=O)O)c1)OCCO2 | 220 to 221 °C |
| CCn1nc(-c2nc(C(N)=O)c(N)nc2-c2ccccc2)ccc1=O | > 250 °C |
| O=S(=O)(Nc1cnc(-n2ccnc2)nc1NCc1ccc2c(c1)OCO2)c1ccc(Cl)cc1 | 206 to 207 °C |
| CCOC(=O)C(Cc1ccccc1)NC(=O)N1CCc2cc(S(=O)(=O)N3CCN(c4cccc(Cl)c4)CC3)ccc21 (stereo unspecified) | 123 to 124 °C |
| COCCOC(=O)CC[C@@H](NC(=O)[C@@H](NC(=O)OC(C)(C)C)C(C)C)C(N)=O | 107 to 108 °C |
| Nc1nc2c(Cl)cc(C(F)(F)F)cc2[nH]c1=O | 270 to 272 °C |
| O=S(=O)(CCN1CCOCC1)OCCOc1ccn(-c2ccc(Cl)c(Cl)c2)n1 | 120 to 122 °C |
| Nc1nc(-c2cc(Cl)ccc2Cl)nc(N2CCC[C@H]2C(=O)O)n1 | 144 to 147 °C |
| Nc1nc(N)nc(-c2ccc(NS(=O)(=O)c3cccc4ccccc34)cc2)n1 | > 250 °C |
| Cc1ccc(NC(=O)c2ccccc2CN2C(=O)C3(COc4cc5c(cc43)CCO5)c3ccccc32)c(C)c1 (stereo unspecified) | 207 to 208 °C |
| CC(=O)OCCOCc1nc2nccnc2c(=O)[nH]1 | 157 to 159 °C |
| O=C(Nc1ccccc1)N1C(=S)C2(CCCCC2)NC12CCCCC2 | 143 to 144 °C |
| COc1ccc(Nc2nc(-c3cc(-c4ccccc4)no3)cs2)nc1 | 203 to 205 °C |
| CC(=Cc1ccccc1)n1c(=O)n(CCCCCl)c2ccccc21 | 90 °C |
| CC(=O)NCCNC(=O)c1ccccn1 | 96 to 99 °C |
| CS(=O)(=O)N(Cc1ccc(F)cc1)c1cccnc1 | 93 to 95 °C |
| Cc1nn(-c2ccc(Br)cc2)cc1C(=O)N(CC(=O)O)c1ccc(OCC(C)(C)C)c(C#N)c1 | 169 to 170 °C |

| Compound | melting point |
| --- | --- |
| Cc1cccc(-c2sc(N)nc2-c2ccnc(-c3ccc(CN(C)C)cc3)c2)n1 | 210 °C |
| C[C@@H](c1ccc(-c2cc(=O)n(C)cc2F)cc1)N1CC[C@](CC(C)(C)O)(c2ccccc2)OC1=O | 183 to 184 °C |
| CC(C)C(C(=O)O)c1ccc([N+](=O)[O-])cc1 (stereo unspecified) | 124 to 127 °C |
| CCOC(=O)C(C)(C(=O)OCC)C(=O)c1cc([N+](=O)[O-])cc(Br)c1Cl | 75 to 76.5 °C |
| O=C(O)C1=CC2C(=O)NC(=O)C2(CCO)C=C1 (stereo unspecified) | 197 to 198 °C |
| CC12C=CCC1C1CCC3=CC(=O)CCC3=C1CC2 (stereo unspecified) | 87 to 92 °C |
| COc1cc(NC(=O)c2ccccc2Cl)ccc1C(=O)N1CCCC(OCCS(=O)(=O)c2ncc[nH]2)c2cc(Cl)ccc21 (stereo unspecified) | 247 to 248 °C |
| O=C(C=Cc1ccccc1)N1CCc2c([nH]c3ccccc23)C12CCC(c1cccc(F)c1)(N1CCC1)CC2 (stereo unspecified) | 120 to 126 °C |
| O=C(O)CCSC1c2ccc(SCC(=O)O)cc2COc2ccc(OCc3ccc4ccc(Cl)cc4n3)cc21 (stereo unspecified) | 165 to 167 °C |
| COC(=O)c1cc(-c2nc(COc3ccc(CO)cc3OC)c(C)o2)ccc1OS(C)(=O)=O | 126 to 127 °C |
| Cc1noc(NC(=O)N2CCN(c3nc(-c4ccc(F)cc4F)cs3)CC2)c1C | 166 to 167 °C |
| CCCOC(=O)c1ccc2c3cccc4cccc(c5ccc(C(=O)OCCC)c1c25)c43 | 253 °C |
| O=Cc1ccc(C=Cc2ccccc2)cc1 | 112 to 113 °C |
| CC(CC(=O)O)NC(=O)c1ccccc1 (stereo unspecified) | 150 to 152 °C |
| CNC(=O)c1cc2[nH]c(C)nc2c2c1CCC1(Cc3ccccc3C1)N2 | 240 to 241 °C |
| COc1ccccc1-c1ccc2cnc(NC(=O)Nc3ccc(N4CCN(C)CC4)cc3)nn12 | 229 to 231 °C |
| CC1CCN(C(=O)C(Cc2cc3c(N)nccc3s2)NS(=O)(=O)c2ccc(COC3CCOCC3)cc2)CC1 (stereo unspecified) | 124 to 128 °C |
| CNC(=S)N(C)NC(=O)c1cccc(F)c1 | 202 to 205 °C |
| Cc1nc(N2CC(Cc3ccccc3)CC2=O)sc1C(=O)NCc1ccccc1 (stereo unspecified) | 143 to 144 °C |
| O=C(NCCC1CC2CCC1C2)n1cc(F)c(=O)[nH]c1=O (stereo unspecified) | 128 to 130 °C |
| CON=C(C1=NCCO1)c1ccccc1OCc1ccc(Cl)cc1 | 97 to 100 °C |
| C=CC(=O)NC(=O)N1CC1C#N (stereo unspecified) | 158 to 160 °C |
| COc1ccc(C(=O)c2ccc(OCc3nc(-c4ccccc4)oc3C)cc2)c(OC(C)C(=O)O)c1 (stereo unspecified) | 100 to 102 °C |

More lines, now with the values ahead:

| melting point | Compound |
| --- | --- |
| 129 to 130 °C | COC(=S)NS(=O)(=O)c1ccc(Cl)cc1 |
| 229 to 230 °C | O=C(O)c1cnn(-c2nc(-c3cccc(C(F)(F)F)c3)cs2)c1 |
| 75 to 79 °C | O=C1CCC(c2ccccc2)(C2CCNC2)CC1 (stereo unspecified) |
| 115 to 116 °C | COC(=O)c1cc(OC)c(N=Nc2ccccc2)c(OC)c1 |
| 163 to 167 °C | O=C(Nc1cc(Cl)c(N2CCCC2)c(Cl)c1)c1ccc(F)c(OCc2cccnc2)c1 |
| 96.8 to 97.6 °C | CN1c2ccccc2-n2cc(Cc3cccnc3)c(=O)c3cccc1c32 |
| 90 to 100 °C | CSc1nnc(C(C)(C)C)c(=O)n1C |
| 101 to 103 °C | COC(=O)c1c(O)c(-c2cccc(C(F)(F)F)c2)nn1C |
| 70 °C | Cc1c(-c2ccccc2)nc(C(F)(F)F)oc1=O |
| 149 to 151 °C | CCCc1nn(C)c2c(=O)[nH]c(-c3cc(C(=O)CN4CCCCC4)ccc3OCC)nc12 |
| 253 to 255 °C | CNCC1CN(c2c(F)cc3c(=O)c(C(=O)O)cn(C4CC4)c3c2Cl)CC1C (stereo unspecified) |
| 185 to 186 °C | CCOc1cc(Cc2cnc(N)nc2N)cc2c1OC(C)(C)C=C2c1cccc(F)c1 |
| 142 °C | Cc1c(C(=O)Nc2ccc(SCCCN3CCCCC3)c(C#N)c2)cnn1-c1ccc(Cl)cc1 |
| 144 to 145 °C | O=C(CC1CCNCC1)c1ccc(N2CCCC2)cc1 |
| 188 to 190 °C | CCOC(=O)C(C)(C)Sc1ccc(OCCn2c(C)nc3ccccc3c2=O)cc1 |
| 74 to 77 °C | CC(C)(CCCCCCCC(=O)CCCCCCCC(C)(C)C(=O)O)C(=O)O |
| 208 to 210 °C | Nc1ccccc1NC(=O)c1cc2cccc(OCC(=O)O)c2o1 |
| 176 to 178 °C | Oc1ccc(-c2ccc(-c3ccccc3)nc2-c2ccc(OCCN3CCCC3)cc2)cc1 |
| 162 °C | COc1nc(C)nc(N(C)C(=O)NS(=O)(=O)c2ccccc2OC(F)(F)F)n1 |
| 150 to 151 °C | CCS(=O)(=O)c1ccc(Oc2ccc(Cl)c(Cl)c2)nc1C#N |
| 147 to 149 °C | O=C1NC(=O)C2(CCOc3ccc(F)cc32)S1 (stereo unspecified) |
| 223 °C | O=C1Cn2ncnc2-c2ccccc2N1 |
| 86 to 88 °C | CCCc1c(O)ccc(C(=O)OCc2ccccc2)c1O |
| 55 to 58 °C | COc1nc(C(F)(F)F)cc(=O)n1-c1ccc(Cl)c(OC(C)C)c1 |
| 171 to 172 °C | Cc1cccc(C(=O)NC(NC(=NC#N)Nc2cccnc2)C(C)(Cl)Cl)c1 (stereo unspecified) |
